From US12290551B2, “Methods for imaging and treatment of somatostatin-receptor positive tumors” (Corcept Therapeutics Incorporated, priority 2018, dated 2025)

Experiments:
Type in all cases: in vivo, human
[1] = test system: Cushing's syndrome patients; assay: Drug-induced hypokalemia in Phase 2 study of relacorilant
[2] = test system: ectopic tumor (somatostatin receptor expression); assay: Indium octreoscan imaging of ectopic tumor before and after relacorilant treatment; conditions: one patient; oral once daily 250, 300, 350, 400 mg/day, four weeks each; 111Indium octreotide
Method: In a further attempt to image, and to localize, the tumor in the patient, an indium octreoscan image (patient was administered Octreotide radiolabeled with ^111Indium prior to imaging) was obtained, in which a dot was seen which enabled localization of the tumor to the right lung/mediastinum region of the patient.
Relacorilant was then orally administered to the patient once per day for four months. The patient was administered 250 milligrams (mg) per day of relacorilant for four weeks, followed by 300 mg/day relacorilant for the next four weeks, followed by 350 mg/day relacorilant for a further four weeks, and then was administered 400 mg relacorilant for another four weeks.
The indium octreoscan image of FIG. 2 provides a much improved and enhanced image of the tumor in the patient as compared to the image of FIG. 1. It is believed that the improvement in the indium octreoscan image of FIG. 2 as compared to the image shown in FIG. 1 was due to increased somatostatin receptor expression, e.g., due to increased sst2 receptor expression, as compared to that expression prior to the relacorilant treatment.

[3] = test system: Cushing's syndrome patients; assay: 24-hr Urinary Free Cortisol, Group 2, 16 week ascending-dose relacorilant study
Source text: (§1) Cortisol levels can be measured in a biological sample, such as saliva, urine, whole blood, serum, plasma, or any other biological fluid taken from a patient suffering from Cushing's syndrome. Such samples are typically analyzed in vitro. In some cases, the same sample is used to measure cortisol level and ACTH level. In other cases, different samples are used to measure cortisol and ACTH levels. For example, cortisol levels can be measured in saliva or urine, and ACTH levels can be measured in plasma. In yet other cases, different samples of the same type are used to measure the levels. Methods for measuring cortisol levels are known to those in the art. Useful assays include immunoassays, e.g., competitive immunoassay, radioimmunoassay, immunofluorometric enzyme assay, and ELISA, competitive protein-binding assay and mass spectrometry, e.g., high-performance liquid chromatography/triple quadrupole-mass spectrometry (LC-MS/MS). Commercial kits for measuring cortisol in sample are available from, e.g., Beckman-Coulter, Seimens, Roche Diagnostics, and the like. Non-limiting examples of an immunoassay include an ADVIA Centaur® Cortisol assay (Siemens Healthcare Global), […] i2000SR cortisol (Abbott), Immulite® 2000 Cortisol assay (Siemans Healthcare Global; #L2KCO2), Vitros® ECi Cortisol assay (Ortho Clinical Diagnostics; #107 4053), and Elecsys® Cortisol Immunoassay (Roche Molecular Diagnostics; #11875116160).
Cortisol levels were measured in a second group of Cushing's syndrome patients who were administered doses of relacorilant. Urinary Free Cortisol (UFC) was measured in these patients over the course of a 16 week study in which ascending doses of relacorilant were administered.

[4] = test system: Cushing's syndrome patients; assay: 24-hr Urinary Free Cortisol, Group 1, 12 week ascending-dose relacorilant study; conditions: for change in cortisol levels: Cushing's syndrome patients, Groups 1 and 2 (Tables 1 and 2); for Mean 24-hr UFC: Group 1, baseline 215.6
Source text: as §1
Cortisol levels were measured in Cushing's syndrome patients who were administered doses of the heteroaryl-ketone fused azadecalin compound relacorilant. Urinary Free Cortisol (UFC) was measured in these patients over the course of a 12 week study in which ascending doses of relacorilant were administered.

[5] = test system: Cushing's syndrome patients; assay: Mean ACTH levels in relacorilant Groups 1 and 2
Source text: Cortisol levels obtained for individual patients and the UFC tabular summary (Tables 1 and 2 above) show no significant changes from baseline in UFC.

Cn1cc(S(=O)(=O)N2CCC3=Cc4c(cnn4-c4ccc(F)cc4)C[C@]3(C(=O)c3cc(C(F)(F)F)ccn3)C2)cn1 [relacorilant, (R)-(1-(4-fluorophenyl)-6-((1-methyl-1H-pyrazol-4-yl)sulfonyl)-4,4a,5,6,7,8-hexahydro-1H-pyrazolo[3,4-g]isoquinolin-4a-yl)(4-(trifluoromethyl)pyridin-2-yl)methanone] was tested, and the drug-induced hypokalemia [1] was “lack of drug-induced hypokalemia”, the “effect on indium octreoscan images of the ectopic tumor” value [2] was “enhanced” and the “Mean 24-hr UFC” value ([3]; relacorilant 250 mg, Wk 2, baseline 228.1) was 252.1 µg/day. For the same compound, the “Mean 24-hr UFC” value ([3]; relacorilant 250 mg, Wk 4, baseline 228.1) was 218.2 µg/day, the “Mean 24-hr UFC” value ([3]; relacorilant 300 mg, Wk 6, baseline 228.1) was 257.4 µg/day and the “Mean 24-hr UFC” value ([3]; relacorilant 300 mg, Wk 8, baseline 228.1) was 149.1 µg/day. The “Mean 24-hr UFC” value ([3]; relacorilant 350 mg, Wk 10, baseline 228.1) was 185.4 µg/day, the “Mean 24-hr UFC” value ([3]; relacorilant 350 mg, Wk 12, baseline 228.1) was 249.0 µg/day and the “Mean 24-hr UFC” value ([3]; relacorilant 400 mg, Wk 14, baseline 228.1) was 194.1 µg/day. The “Mean 24-hr UFC” value ([3]; relacorilant 400 mg, Wk 16, baseline 228.1) was 203.1 µg/day, the “change in cortisol levels” value [4] was “does not lead to significant increases in cortisol levels” and the “change in cortisol levels” value ([4]; listed as Relacorilant) was “no increases in cortisol concentrations”. The “Mean 24-hr UFC” value ([4]; relacorilant 100 mg, Wk 2) was 151.8 µg/day, the “Mean 24-hr UFC” value ([4]; relacorilant 100 mg, Wk 4) was 157.0 µg/day and the “Mean 24-hr UFC” value ([4]; relacorilant 150 mg, Wk 6) was 145.3 µg/day. For the same compound, the “Mean 24-hr UFC” value ([4]; relacorilant 150 mg, Wk 8) was 134.9 µg/day, the “Mean 24-hr UFC” value ([4]; relacorilant 200 mg, Wk 10) was 180.9 µg/day and the “Mean 24-hr UFC” value ([4]; relacorilant 200 mg, Wk 12) was 211.6 µg/day. For the same compound, the “mean ACTH” value ([5]; Group 1, Week 12, SD 10.34, Baseline 11.02±8.04) was 14.68 pmol/L, the “mean ACTH” value ([5]; Group 2, Week 16 or last-observed, SD 10.72, Baseline 12.79±8.36) was 15.56 pmol/L and the “change in ACTH” value ([5]; baseline to end of treatment) was “only modest increases in ACTH”.
